The values below come from patent US11578084B2, “Condensed ring compounds having dopamine D3 receptor antagonistic effect” (Shionogi & Co., Ltd., priority 2018, dated 2023).

Series [1] concerns the target human ether-a-go-go related gene (hERG) channel (Homo sapiens (Human), UniProt Q12809). The experiment in a line: hERG test (whole cell patch clamp, IKr). Format: cell-based. The conditions noted are these: 3 μM, CHO cells expressing hERG, tail peak current. A general note: hERG is a cardiac potassium channel; its block is linked to QT prolongation.
Series [2] has as its target human recombinant dopamine D2 receptor (Homo sapiens (Human), UniProt P14416). Nature of the series: Test of binding inhibition for dopamine D2 receptor ([3H]-Methylspiperone SPA). The conditions noted are these: Jump-In HEK cell membranes, read-out: hD2_Ki. The method in brief: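 Incubation was 120 min at 25° C. with human recombinant D2 membranes from Jump-In HEK cells (2 μg/well), WGA SPA beads (0.2 mg/well) and [3H]-Methylspiperone as radioligand.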

For series [3], the target named is human recombinant dopamine D3 receptor (Homo sapiens (Human), UniProt P35462). The experiment in a line: Test of binding inhibition for dopamine D3 receptor ([3H]-Methylspiperone SPA). The conditions noted are these: Jump-In HEK cell membranes, 2 nM [3H]-Methylspiperone, 120 min at 25° C.; read-out: hD3_Ki. The method in brief:
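SPA radioligand binding on Jump-In HEK membranes expressing human D3 receptor (4 µg/well) with 2 nM [3H]-methylspiperone (final), incubated 120 min at 25 °C. Non-specific binding defined with 10 µM butaclamol. Percent inhibition computed against total and non-specific binding; Ki from dose-response curves.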

For a further series, the target named is hERG channel (IKr) (Homo sapiens (Human), UniProt Q12809). Nature of the series: hERG test (whole cell patch clamp, IKr). The note with it: human, CHO cells expressing hERG channel, pH 7.4, 3 μM, tail peak current. The format is cell-based.
Sequence of hERG channel (IKr) (Q12809 whole entry): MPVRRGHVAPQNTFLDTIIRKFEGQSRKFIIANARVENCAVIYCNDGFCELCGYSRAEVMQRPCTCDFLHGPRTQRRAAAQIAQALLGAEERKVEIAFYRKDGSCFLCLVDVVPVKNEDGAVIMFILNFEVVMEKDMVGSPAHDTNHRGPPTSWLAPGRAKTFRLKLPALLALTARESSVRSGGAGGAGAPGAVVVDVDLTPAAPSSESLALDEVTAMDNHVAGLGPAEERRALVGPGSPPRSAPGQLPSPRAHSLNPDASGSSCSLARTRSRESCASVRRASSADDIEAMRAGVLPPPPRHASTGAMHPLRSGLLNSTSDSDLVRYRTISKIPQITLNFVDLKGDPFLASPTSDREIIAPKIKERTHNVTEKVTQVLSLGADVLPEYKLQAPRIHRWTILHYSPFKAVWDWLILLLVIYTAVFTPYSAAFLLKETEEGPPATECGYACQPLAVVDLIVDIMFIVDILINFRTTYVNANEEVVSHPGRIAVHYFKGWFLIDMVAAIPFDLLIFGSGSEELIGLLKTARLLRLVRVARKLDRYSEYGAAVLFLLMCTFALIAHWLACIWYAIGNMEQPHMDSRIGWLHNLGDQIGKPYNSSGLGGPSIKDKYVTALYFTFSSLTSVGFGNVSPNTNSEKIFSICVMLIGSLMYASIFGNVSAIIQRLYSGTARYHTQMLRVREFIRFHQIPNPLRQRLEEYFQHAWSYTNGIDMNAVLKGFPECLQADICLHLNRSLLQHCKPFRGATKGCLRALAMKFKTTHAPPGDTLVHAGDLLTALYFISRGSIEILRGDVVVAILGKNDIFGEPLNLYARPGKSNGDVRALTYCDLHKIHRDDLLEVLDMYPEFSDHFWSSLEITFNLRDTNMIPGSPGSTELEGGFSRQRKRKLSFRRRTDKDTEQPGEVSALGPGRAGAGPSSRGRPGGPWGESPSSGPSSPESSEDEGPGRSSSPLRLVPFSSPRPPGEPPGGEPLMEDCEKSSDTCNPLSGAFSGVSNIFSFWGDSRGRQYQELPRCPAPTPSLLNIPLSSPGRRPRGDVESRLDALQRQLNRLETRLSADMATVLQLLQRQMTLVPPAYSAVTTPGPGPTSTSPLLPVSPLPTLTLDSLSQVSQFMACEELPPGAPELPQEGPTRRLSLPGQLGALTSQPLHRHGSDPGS
The target of series [4] is human MDR1-expressing cells (Homo sapiens (Human), UniProt P08183). Nature of the series: P-gp substrate test (Transwell, MDR1-expressing cells vs parent cells). The note with it: efflux ratio of MDR1-expressing cells compared with parent cells. The format is in vitro ADME. As to the method: Test Example 14: P-Gp Substrate Test The compound of the present invention was added to one side of Transwell (registered trademark, CORNING) where human MDR1-expressing cells or parent cells have been monolayer-cultured. The cells were reacted for a constant time. The membrane permeability coefficients from the apical side toward the basolateral side (A→B) and from the basolateral side toward the apical side (B→A) were calculated for the MDR1-expressing cells or the parent cells, and the efflux ratio (ER; ratio of the membrane permeability coefficients of B→A and A→B) values of the MDR1-expressing cells and the parent cells were calculated. The efflux ratio (ER values) of the MDR1-expressing cells and the parent cells were compared to confirm whether or not the compound of the present invention would be a P-gp substrate.
Sequence of human MDR1-expressing cells (P08183 whole entry): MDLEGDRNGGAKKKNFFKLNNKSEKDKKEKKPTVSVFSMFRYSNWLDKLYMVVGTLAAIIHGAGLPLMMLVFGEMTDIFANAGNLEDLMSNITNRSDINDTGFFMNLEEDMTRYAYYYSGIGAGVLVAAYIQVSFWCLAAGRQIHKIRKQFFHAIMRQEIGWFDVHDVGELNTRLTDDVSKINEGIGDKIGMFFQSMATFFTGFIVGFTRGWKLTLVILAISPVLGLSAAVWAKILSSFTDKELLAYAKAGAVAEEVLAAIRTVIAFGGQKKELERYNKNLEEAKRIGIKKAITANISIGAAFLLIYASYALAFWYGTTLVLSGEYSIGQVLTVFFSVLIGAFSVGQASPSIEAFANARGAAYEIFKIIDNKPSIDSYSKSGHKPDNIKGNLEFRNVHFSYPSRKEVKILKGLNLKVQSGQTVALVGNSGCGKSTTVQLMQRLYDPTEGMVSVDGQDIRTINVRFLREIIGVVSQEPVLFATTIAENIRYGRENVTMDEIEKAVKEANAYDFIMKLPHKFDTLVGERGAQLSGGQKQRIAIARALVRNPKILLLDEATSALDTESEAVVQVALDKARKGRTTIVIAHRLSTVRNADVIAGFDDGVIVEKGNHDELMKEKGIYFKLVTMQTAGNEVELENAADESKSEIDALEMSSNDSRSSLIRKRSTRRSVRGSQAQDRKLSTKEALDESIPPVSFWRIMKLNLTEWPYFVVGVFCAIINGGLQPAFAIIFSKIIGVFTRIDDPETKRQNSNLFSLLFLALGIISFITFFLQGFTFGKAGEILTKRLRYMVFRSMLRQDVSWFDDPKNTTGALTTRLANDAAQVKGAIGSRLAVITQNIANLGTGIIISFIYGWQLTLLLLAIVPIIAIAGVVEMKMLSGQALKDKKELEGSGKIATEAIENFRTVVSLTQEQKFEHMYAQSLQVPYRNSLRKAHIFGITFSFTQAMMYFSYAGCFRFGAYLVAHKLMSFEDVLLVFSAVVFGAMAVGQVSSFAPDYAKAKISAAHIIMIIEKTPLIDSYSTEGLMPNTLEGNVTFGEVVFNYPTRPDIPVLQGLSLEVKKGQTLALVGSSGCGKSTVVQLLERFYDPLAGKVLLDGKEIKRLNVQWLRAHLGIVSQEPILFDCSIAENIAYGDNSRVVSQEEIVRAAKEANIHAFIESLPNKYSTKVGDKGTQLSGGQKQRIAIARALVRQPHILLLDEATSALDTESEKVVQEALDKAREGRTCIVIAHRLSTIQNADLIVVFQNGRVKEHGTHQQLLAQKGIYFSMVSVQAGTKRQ

Series [5] can be described thus: Solubility test (1% DMSO addition, JP-1 fluid or JP-2 fluid). Format: physicochemical. The conditions noted are these: 25 °C, kinetic from dmso stock. As to the method:
Test Example 11: Solubility Test The solubility of the compound of the present invention was determined under 1% DMSO addition conditions. A 10 mmol/L solution of the compound was prepared with DMSO. 2 μL of the solution of the compound of the present invention was respectively added to 198 μL of JP-1 fluid or JP-2 fluid, or 6 μL of the solution of the compound of the present invention was respectively added to 594 μL of JP-1 fluid or JP-2 fluid. The mixture was left standing for 16 hours at 25° C. (condition 1) or shaking at room temperature for 3 hours (condition 2), and the mixture was vacuum-filtered. The filtrates were diluted 10- or 100-fold with methanol/water=1/[…]) or acetonitrile/methanol/water=1/1/[…]/V), and concentrations in the filtrates were measured by the absolute calibration curve method using LC/MS or solid-phase extraction (SPE)/MS. The dilution rate or dilution solvent was changed as necessary. The composition of the JP-1 fluid was as below. Water was added to 2.0 g of sodium chloride and 7.0 mL of hydrochloric acid to reach 1000 mL. The composition of the JP-2 fluid was as below. Composition 1. 3.40 g of potassium dihydrogen phosphate and 3.55 g of anhydrous disodium hydrogen phosphate were dissolved in water to reach 1000 mL. Composition 2. 1 volume of water was added to 1 volume of the solution in which 3.40 g of potassium dihydrogen phosphate and 3.55 g of anhydrous disodium hydrogen phosphate were dissolved in water to reach 1000 mL.

Setting [6] is: 1.2 nM [3H]-Methylspiperone, 120 min at 25° C.
The mark [7] stands for this setting: pH 1.2, simulated gastric fluid, JP-1 fluid, read-out: Solubility JP-1.
Setting [8] is: pH 6.8, aqueous buffer, JP-2 fluid, read-out: Solubility JP-2.

Molecules are shown by their SMILES. Like-named read-outs stand apart in the source and are kept apart here. Bounds are passed on as bounds.

Sequence of human recombinant dopamine D3 receptor (P35462 whole entry): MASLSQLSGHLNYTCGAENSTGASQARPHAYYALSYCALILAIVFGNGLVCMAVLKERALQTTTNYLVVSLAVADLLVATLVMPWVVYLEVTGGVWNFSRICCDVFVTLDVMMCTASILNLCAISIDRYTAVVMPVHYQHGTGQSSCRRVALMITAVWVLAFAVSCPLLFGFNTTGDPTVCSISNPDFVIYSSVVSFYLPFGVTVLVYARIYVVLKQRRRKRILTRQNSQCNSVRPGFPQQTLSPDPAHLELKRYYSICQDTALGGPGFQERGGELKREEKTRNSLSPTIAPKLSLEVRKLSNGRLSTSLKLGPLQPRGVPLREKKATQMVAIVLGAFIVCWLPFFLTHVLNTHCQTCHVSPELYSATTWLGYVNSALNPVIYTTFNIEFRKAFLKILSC
Sequence of human recombinant dopamine D2 receptor (P14416 whole entry): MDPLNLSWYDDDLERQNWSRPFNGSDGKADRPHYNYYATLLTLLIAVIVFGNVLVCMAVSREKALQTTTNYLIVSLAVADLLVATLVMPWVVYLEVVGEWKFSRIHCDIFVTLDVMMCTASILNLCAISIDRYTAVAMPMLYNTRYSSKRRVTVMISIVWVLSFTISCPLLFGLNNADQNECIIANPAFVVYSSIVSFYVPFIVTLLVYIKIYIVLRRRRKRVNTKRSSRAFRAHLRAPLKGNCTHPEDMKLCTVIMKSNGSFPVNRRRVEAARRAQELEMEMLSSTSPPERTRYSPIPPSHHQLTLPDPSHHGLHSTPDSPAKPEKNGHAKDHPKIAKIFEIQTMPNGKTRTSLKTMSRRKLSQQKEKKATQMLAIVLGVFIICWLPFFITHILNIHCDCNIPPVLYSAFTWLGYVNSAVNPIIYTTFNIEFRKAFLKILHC
Sequence of human ether-a-go-go related gene (hERG) channel (Q12809 whole entry): as the sequence (Q12809 whole entry) above

For `CC(Oc1nc2c(s1)CCN(CC[C@H]1CC[C@H](NC(=O)c3cccc4nn(C)cc34)CC1)CC2)C(F)F` (single isomer, unassigned) [Example I-119], in series [1], the “hERG inhibition(%) at 3 μM” value was 23.1%. The Ki in series [2] (setting [6]) is 1200 nM; in series [3], 0.11 nM.
`Cn1ncc(CC(=O)N[C@H]2CC[C@H](CCN3CCc4sc(OCC(C)(F)F)nc4C3)CC2)n1` [Example I-005] gave an inhibition at 3 µM against hERG channel (IKr) of 15.3%. Besides, the Ki in series [2] (setting [6]) was 720 nM; in series [3], 0.63 nM. In addition, the “P-gp ER ratio” value in series [4] came to 1.5.
Compound `Cn1ncc(CC(=O)N[C@H]2CC[C@](F)(CCN3CCc4ccc(OCC(F)F)nc4CC3)CC2)n1` [Example I-031] gave an inhibition at 3 µM against hERG channel (IKr) of 23.8%. Further, the Ki in series [2] (setting [6]) amounted to 800 nM; in series [3] it was 0.19 nM. The “P-gp ER ratio” value in series [4] stood at 1.5.
Turning to `Cn1cc2c(C(=O)NC34CCC(CCN5CCc6nc(OCC(F)(F)F)sc6CC5)(CC3)CC4)cccc2n1` [II-8], the results for the Ki in series [2] ([3H]-Methylspiperone 1.2 nM) and in series [3] were 1600 nM and 0.084 nM, respectively. Besides, the solubility in series [5] (setting [7]) and in series [5] (setting [8]) was over 50 µM throughout.
Consider `Cc1ncc(OCC(=O)NC23CCC(CCN4CCc5nc(OCC(F)(F)F)sc5CC4)(CC2)CC3)cn1` [II-9], for which the Ki in series [2] ([3H]-Methylspiperone 1.2 nM) was 960 nM; in series [3] it was 0.12 nM. Further, the solubility in series [5] (setting [7]) and in series [5] (setting [8]) was over 50 µM throughout.
For `Cn1cc2c(C(=O)NC34CCC(CCN5CCc6nc(OCC(F)(F)F)sc6CC5)(CC3)OC4)cccc2n1` [II-11], the results for the Ki in series [2] ([3H]-Methylspiperone 1.2 nM) and in series [3] were over 2300 nM and 0.23 nM, respectively. In addition, the solubility in series [5] (setting [7]) and in series [5] (setting [8]) was over 50 µM throughout.
As to `Cc1ncc(OCC(=O)NC23CCC(CCN4CCc5nc(OCC(F)(F)F)sc5CC4)(CC2)OC3)cn1` [II-12], the figures for the Ki in series [2] ([3H]-Methylspiperone 1.2 nM) and in series [3] were 1500 nM and 0.49 nM, respectively. Moreover, the solubility in series [5] (setting [7]) and in series [5] (setting [8]) was over 50 µM in each case.
In the case of `Cn1ncc(CC(=O)N[C@H]2CC[C@](F)(CCN3CCc4nc(OCC(C)(F)F)sc4CC3)CC2)n1` [I′-39], the inhibition at 3 µM at hERG channel (IKr) was 17.3%. The Ki in series [2] ([3H]-Methylspiperone 1.2 nM) was determined as 960 nM; in series [3], 0.49 nM. The “P-gp ER ratio” value in series [4] stood at 1.9.

By inhibition is commonly meant how much of the control response was suppressed. Higher therefore signals a strong effect. A word on the solubility: it is the dissolved amount per volume that the medium holds.
